This note sets out measurements from patent publication EP3445382B1, “HARUNGANA MADAGASCARIENSIS LEAF EXTRACT FOR USE IN THE TREATMENT AND/OR PREVENTION OF ACNE” (Société d'Exploitation de Produits pour les Industries …, priority 2016, dated 2017).

The % Inhibition is how much of the control response was suppressed. A lower % Inhibition goes with a response near the control. What is called inhibition is the drop in the measured response relative to a control, in per cent.

The nature of data set [1]: acellular lipid peroxidation, TBARS production (hemin-induced, phosphatidylcholine micelles). It is filed as biochemical. The settings on record: 10 µM, hemin 5 µM, 1 hour at 37 °C. On the procedure: In the present example, the effect of HMA extract was evaluated on oxidative stress. More specifically, its protective effect against lipid peroxidation (acellular reaction) was evaluated by measuring the production of thiobarbituric acid reactive substances (TBARS). The quantification of anti-oxidant capacity was undertaken as follows: Samples of HMA extract to be analyzed were prepared from a stock solution containing 5% (w/v) in glycerol/ultra-pure water (60/40). […] Additional control conditions were also included in the experimental design: without inducer (non-activated condition), 'Interference' controls (test compound added to the reactive medium without micelles of lipids to assess a potential auto-fluorescence of compounds) and 'Quenching' controls (test compound added at the end of reaction to check for potential quenching of the signal directly by the test compounds). […] TBARS thus produced were then evaluated by fluorescence measurement (λex 540 nm; λem 590 nm). The results are expressed as TBARS equivalent, representing the antioxidant activity expressed as Trolox equivalent of the test compound. Raw data were analyzed using Microsoft Excel® software. […]

Data set [2] deals with T1, pancreatic lipase (PL; 3.1.1.3) (Homo sapiens, UniProt P16233).
T1 sequence (P16233 17-465): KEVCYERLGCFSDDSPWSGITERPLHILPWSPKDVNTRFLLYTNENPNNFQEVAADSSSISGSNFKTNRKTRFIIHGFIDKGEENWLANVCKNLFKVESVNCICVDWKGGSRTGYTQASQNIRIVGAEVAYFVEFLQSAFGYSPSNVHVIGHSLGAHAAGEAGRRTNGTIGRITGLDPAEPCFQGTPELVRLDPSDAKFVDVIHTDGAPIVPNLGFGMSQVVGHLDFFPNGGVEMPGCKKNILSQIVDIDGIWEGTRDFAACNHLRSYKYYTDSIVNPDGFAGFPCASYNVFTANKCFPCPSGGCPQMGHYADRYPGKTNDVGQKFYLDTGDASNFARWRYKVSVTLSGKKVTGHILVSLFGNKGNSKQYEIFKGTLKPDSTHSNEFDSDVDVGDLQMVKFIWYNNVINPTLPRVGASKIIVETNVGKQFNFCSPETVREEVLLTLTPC
Description: lipase activity, biochemical test with radioactive triolein substrate. The settings on record: 1000 nM; 2 hours at 37 °C. On the procedure:
In the present example, the effect of HMA extract was evaluated on the lipase activity with a biochemical test using a radioactive substrate. The lipase catalyzes the hydrolysis of glycerol-ester (glycerides) and long chain fatty acid emulsions. The substrate of this enzyme is not a simple molecule but a non-aqueous phase of aggregated lipids. The usual method to quantify the lipase activity is titration (pH variation) which is not often efficient for the testing of inhibitory compounds and generates several artifacts. An alternative and more efficient method (followed in the present example) was to use a radioactive complex lipid substrate.
The quantification of lipase activity was undertaken as follows: Samples of HMA extract to be analyzed were prepared from a stock solution containing 5% (w/v) in glycerol/ultra-pure water (60/40).
The compound and the reference (Orlistat tested at 1000 nM) were incubated for 2 hours at 37 °C in presence of the enzyme, pancreatic lipase (PL; 3.1.1.3) at 125 U/ml and the radioactive substrate (3.34 µCi/tube, stable emulsion of triolein at 5.25 mM corresponding to a mix of cold and titriated triolein). A negative control was performed by incubating the substrate alone, without enzyme in the reaction mix, in order to determine the background signal. […]
(§1) Raw data were analyzed using Microsoft Excel® software. […]

Data set [3] relates to IL-8 release by LPS-stimulated PBMCs. Description: IL-8 release by LPS-stimulated PBMCs (ELISA). In kind it is cell-based. Conditions: Homo sapiens, PBMC; 10^-7 M; LPS 1 µg/ml, 24 hours. On the procedure: (§2) In the present example, the potential anti-inflammatory effect of HMA extract was investigated in human peripheral blood mononuclear cells (PBMCs) under stimulated conditions. More precisely, the effect of the test compound was evaluated on IL-8, IL-10 and IL-12 release by LPS-stimulated PBMCs using specific ELISA kits.
(§3) The quantification of anti-inflammatory effects was undertaken as follows: Samples of HMA extract to be analyzed were prepared from a stock solution containing 5% (w/v) in glycerol/ultra-pure water (60/40).
(§4) PBMCs were isolated from whole blood, seeded in 96-well plates and incubated in culture medium for 1 hour. The medium was then replaced by culture medium containing or not (stimulated control) the test compound or the reference compound, i.e., dexamethasone tested at 10^-7 M, and cells were pre-incubated for 1 hour. The inflammatory inducer, LPS (1 µg/ml) was then added and cells were incubated for 24 hours. A non-stimulated control was also performed in parallel. All experimental conditions were performed in n=3.
(§5) After incubation, the culture supernatants were collected in order to quantify IL-8, IL-10 and IL-12 release. […]
(§6) The quantity of IL-8, IL-10 and IL-12 released in the culture supernatants was measured using specific ELISA kits according to the supplier's instructions.
as §1
(ELISA stands for enzyme-linked immunosorbent assay.)

The test system of data set [4] is IL-10 release by LPS-stimulated PBMCs. Kind of data set: IL-10 release by LPS-stimulated PBMCs (ELISA). Conditions: 10^-7 M, LPS 1 µg/ml, 24 hours. In kind it is cell-based, human. On the procedure: as §2, §3, §4, §5, §6, §1
Data set [5] relates to IL-12 release by LPS-stimulated PBMCs. Description: IL-12 release by LPS-stimulated PBMCs (ELISA). It is filed as cell-based, human. The settings on record: 10^-7 M, LPS 1 µg/ml. On the procedure: as §2, §3, §4, §5, §6, §1
The test system of the next data set is PBMCs. Description: viability assay (alamarBlue) on LPS-stimulated PBMCs. Conditions: 10^-7 M. In kind it is cell-based, human. On the procedure: as §4
After incubation, the culture supernatants were collected in order to quantify IL-8, IL-10 and IL-12 release. A viability assay was performed on cells according to a standard alamarBlue® protocol.
After treatment, the cells were incubated with alamarBlue® reduced in resorufin via the mitochondrial reduction reactions of metabolically active cells. This transformation is proportional to the number of living cells. The optical density (OD) at 570nm was recorded using a microplate reader (VERSAmax, Molecular Devices).
(In general: Alamar Blue is a resazurin reagent that responds to reducing activity.)

A value given as a limit tells only on which side of the number the result lay.

In the case of `Cc1c(C)c2c(c(C)c1O)CCC(C)(C(=O)O)O2` (centres unmarked) [Trolox, 6-hydroxy-2,5,7,8-tetramethylchroman-2-carboxylic acid], in data set [1], the “% Inhibition” value was 72%.

Regarding `CCCCCCCCCCC[C@@H](C[C@@H]1OC(=O)[C@H]1CCCCCC)OC(=O)[C@H](CC(C)C)NC=O` [Orlistat], the inhibition at 1 µM in data set [2] is 41%.

As for `C[C@@H]1C[C@H]2[C@@H]3CCC4=CC(=O)C=C[C@]4(C)[C@@]3(F)[C@@H](O)C[C@]2(C)[C@@]1(O)C(=O)CO` [Dexamethasone, dexamethasone], the inhibition at 0.1 µM in data set [3] stood at 72%; in data set [4] (Homo sapiens, PBMC, inhibition (I), read-out: % Inhibition (I) or % stimulation (S)) it was 32%; in data set [5] (Homo sapiens, PBMC, 24 h), 100%. Further, in data set [4], the “% Inhibition (I) or % stimulation (S)” value was 32 (I) %. In data set [5] (24 hours), the “% Inhibition” value is on record as more than 100%. Moreover, the “Viability % stimulated control” value in the data set with PBMCs stood at 88 % stimulated control.
